Test results: patent US4220577A, “Iodopropargyl pyridyl and picolinyl ethers and thioethers as paint fungicides” (Givaudan Corporation, priority 1979, dated 1980)
Values after ≈ are worked out from the molar mass of the structure shown.

Tests used:
[1] = test system: Aureobasidium pullulans (strain 1); experiment: Antifungal activity on painted surfaces, strain 1; format: cell-based; set-up: key to Surface Growth: 0: No growth; 1: Slight growth; 2: Moderate growth; 3: Heavy growth; details: Strain 1, three weeks
Description: (§1) Any antifungal agent which can be used to prevent mildew on painted surfaces must be effective against Aureobasidium pullulans, the organism which is primarily responsible for mildew on painted surfaces. The effectiveness of the novel compounds was tested by incorporating the compound into an exterior latex paint, applying the paint to a surface, and testing the ability of the painted surface to prevent the growth of Aureobasidium pullulans. The tests were run as described below. The novel compounds were incorporated into an exterior vinyl acetate latex paint by mulling the compound into the paint. The compounds were tested in the paints at levels of 0.25% and 0.5%. One coat of this paint was applied to each side of a piece of Whatman #30 filter paper. Two one-inch squares were cut from the filter paper. Each square was centered on the agar surface of separate Petri dishes containing malt agar. One square was inoculated with a suspension of Aureobasidium pullulans (strain 1) which was an in-house strain used for routine antimicrobial testing. The second square was inoculated with a suspension of Aureobasidium pullulans (strain 2) which was grown from a culture obtained from the surface of a mildew infested panel. Squares painted with the same exterior vinyl acetate latex paint, but without the novel compounds of this invention, were run in parallel. The Petri dishes were then incubated at 27° C. and at greater than 90% humidity for a three week period and observed for zones of inhibition and surface growth.

[2] = test system: Aureobasidium pullulans (strain 2); experiment: Antifungal activity on painted surfaces, strain 2; format: cell-based; set-up: key to Surface Growth: 0: No growth; 1: Slight growth; 2: Moderate growth; 3: Heavy growth; key to Zone of Inhibition: 0: no zone; 1-5 mm; 2: 6-10 mm; 3: 11-15 mm; 4: 16-20 mm; 5: >20 mm; details: Strain 2, three weeks
Description: as §1

Staphylococcus aureus = experiment: 5-fold serial dilution test in agar, MIC, B1; format: cell-based; details: 37° C., 48 hours, read-out: Minimum Inhibitory Concentration Range
Description: (§2) Antibacterial and antifungal activity were evaluated by a 5-fold serial dilution test in agar. In this test, compounds were prepared as 6% solutions in dimethylformamide or ethanol. The 6% solution was then 5-fold serially diluted in test tubes to give the desired concentrations when mixed with agar and poured into sterile Petri dishes. Trypticase glucose extract agar was used for the bacterial testing; mildew glucose agar for the fungal testing. The bacterial plates were spot inoculated with 24-hour nutrient broth cultures and incubated at 37° C. for 48 hours. The fungal plates were spot inoculated with spore suspensions and incubated at 28° C. for seven days. At the end of the incubation periods, all plates were examined for growth. The minimum inhibitory concentration (MIC) for each organism is expressed in Table I. In the ranges presented, growth is observed only at the lower concentration.
B1 Staphylococcus aureus

Escherichia coli = experiment: 5-fold serial dilution test in agar, MIC, B2; format: cell-based; details: 37° C., 48 hours, read-out: Minimum Inhibitory Concentration Range
Description: as §2

Pseudomonas aeruginosa = experiment: 5-fold serial dilution test in agar, MIC, B3; format: cell-based; details: 37° C., 48 hours, read-out: Minimum Inhibitory Concentration Range
Description: as §2
B3 Pseudomonas aeruginosa

Proteus vulgaris = experiment: 5-fold serial dilution test in agar, MIC, B4; format: cell-based; details: 37° C., 48 hours, read-out: Minimum Inhibitory Concentration Range
Description: as §2

Bacillus subtilis = experiment: 5-fold serial dilution test in agar, MIC, B5; format: cell-based; details: 37° C., 48 hours, read-out: Minimum Inhibitory Concentration Range
Description: as §2
B5 Bacillus subtilis 4 3 μg/ml

Aspergillus niger = experiment: 5-fold serial dilution test in agar, MIC, F1; format: cell-based; details: 168 h, 28° C., seven days, read-out: Minimum Inhibitory Concentration Range
Description: as §2

Aspergillus oryzae = experiment: 5-fold serial dilution test in agar, MIC, F2; format: cell-based; details: 168 h, 28° C., seven days, read-out: Minimum Inhibitory Concentration Range
Description: as §2

Penicillium piscarium = experiment: 5-fold serial dilution test in agar, MIC, F3; format: cell-based; details: 168 h, 28° C., seven days, read-out: Minimum Inhibitory Concentration Range
Description: as §2
F3 Penicillium piscarium

Aureobasidium pullulans = experiment: 5-fold serial dilution test in agar, MIC, F4; format: cell-based; details: 168 h, 28° C., seven days, read-out: Minimum Inhibitory Concentration Range
Description: as §2
F4 Aureobasidium pullulans

[3] = test system: Aureobasidium pullulans (strain 2); experiment: Antifungal activity of painted birch blades after exposure to heat and light; format: cell-based; set-up: key to Surface Growth: 0: No growth; 1: Slight growth; 2: Moderate growth; 3: Heavy growth; details: after light (300-400 nm) and heat (40° C.) four weeks
Description: Successful paint fungicides must be stable when exposed to the elements such as heat and light. Such stability was tested in the laboratory by exposing painted sticks to heat and light. The compounds of this invention were incorporated into an exterior vinyl acetate latex paint as described in Example XXI. Birch blades (tongue depressors) were painted (two coats) and continuously exposed to light (wavelength 300-400 nm) and heat (40° C.) for four consecutive weeks. At the end of the exposure time, one-inch squares of the painted birch blades were cut and tested according to the procedure of Example XXI, using strain 2.

mildew = experiment: Outdoor field test of painted pine panels; details: Paint A (Vinyl acetate latex), .5%, month 4
Excerpt: A number of the compounds were field tested in various latex paints. Pine panels (6"×12"×1/2") were given two coats of paint and, after drying, were exposed at an outdoor location subject to high heat and humidity levels. Paints containing the novel componds of this invention were compared with those containing the commercial mecurial mildewcide phenyl mecuric acetate (PMA), a commercial non-mercurial mildewcide 2-n-octyl-4-isothiazolin-3-one and 3-iodo-2-propynyloxybenzene.

[4] = 0.25% in vinyl acetate latex paint
[5] = 0.5% in vinyl acetate latex paint

MIC (Staphylococcus aureus) [µg/mL]	MIC (Escherichia coli) [µg/mL]	MIC (Pseudomonas aeruginosa) [µg/mL]	MIC (Proteus vulgaris) [µg/mL]	MIC (Bacillus subtilis) [µg/mL]	MIC (Aspergillus niger) [µg/mL]	MIC (Aspergillus oryzae) [µg/mL]	MIC (Penicillium piscarium) [µg/mL]	MIC (Aureobasidium pullulans) [µg/mL]	SMILES	Surface Growth ([3]; 0.25%)	Surface Growth ([3]; 0.5%)	further results
									IC#CCOCc1cccnc1 [drawing 16]			Surface Growth [1, 4]: 0; Zone of Inhibition [1, 4]: 4 (16-20 mm); Surface Growth [1, 5]: 0; Zone of Inhibition [1, 5]: 5 (>20 mm); Surface Growth [2, 4]: 0; Zone of Inhibition [2, 4]: 3 (11-15 mm); Surface Growth [2, 5]: 0; Zone of Inhibition [2, 5]: 4 (16-20 mm)
76 to 384 (≈ 278 to 1410 µM)	76 to 384 (≈ 278 to 1410 µM)	> 1920	15 to 76 (≈ 54.9 to 278 µM)	76 to 384 (≈ 278 to 1410 µM)	0.03 to 0.12 (≈ 0.11 to 0.439 µM)	0.12 to 0.6 (≈ 0.439 to 2.2 µM)	0.12 to 0.6 (≈ 0.439 to 2.2 µM)	0.6 to 3 (≈ 2.2 to 11 µM)	IC#CCOCc1cccnc1 [drawing 8]			
									IC#CCSc1cccnc1 [drawing 24]	3	2	
									Nc1ncccc1OCC#CI [drawing 23]	1	0	
									Clc1ncccc1OCC#CI [drawing 21]	0		
384 to 1920 (≈ 1400 to 6980 µM)	> 1920	> 1920	384 to 1920 (≈ 1400 to 6980 µM)	76 to 384 (≈ 276 to 1400 µM)	< 0.03	0.12 to 0.6 (≈ 0.436 to 2.18 µM)	0.12 to 0.6 (≈ 0.436 to 2.18 µM)	0.12 to 0.6 (≈ 0.436 to 2.18 µM)	IC#CCSc1ccncc1 [drawing 10]			
> 1920	> 1920	> 1920	> 1920	> 1920	15 to 76 (≈ 54.5 to 276 µM)	< 0.03	0.12 to 0.6 (≈ 0.436 to 2.18 µM)	0.12 to 0.6 (≈ 0.436 to 2.18 µM)	IC#CCSc1cccnc1 [drawing 7]			
									Nc1ncccc1OCC#CI [drawing 14]			Surface Growth [1, 4]: 0; Surface Growth [1, 5]: 0; Zone of Inhibition [1, 5]: 2 (6-10 mm); Surface Growth [2, 4]: 0; Zone of Inhibition [2, 4]: 0; Surface Growth [2, 5]: 0; Zone of Inhibition [2, 5]: 0
									IC#CCOc1ccccc1 [reference compound]	3	2	
									CCCCCCCCn1sccc1=O [II, 2-n-octyl-4-isothiazolin-3-one, reference compound]			Panel Scoring (mildew): 8
									Cc1ccc(OCC#CI)c(Cl)n1 [drawing 22]		0	
15 to 76 (≈ 54.7 to 277 µM)	15 to 76 (≈ 54.7 to 277 µM)	76 to 384 (≈ 277 to 1400 µM)	3 to 15 (≈ 10.9 to 54.7 µM)	15 to 76 (≈ 54.7 to 277 µM)	0.12 to 0.6 (≈ 0.438 to 2.19 µM)	0.12 to 0.6 (≈ 0.438 to 2.19 µM)	0.6 to 3 (≈ 2.19 to 10.9 µM)	0.6 to 3 (≈ 2.19 to 10.9 µM)	Nc1ncccc1OCC#CI [drawing 6]			
15 to 76 (≈ 57.9 to 293 µM)	76 to 384 (≈ 293 to 1480 µM)	> 1920	3 to 15 (≈ 11.6 to 57.9 µM)	3 to 15 (≈ 11.6 to 57.9 µM)	0.03 to 0.12 (≈ 0.116 to 0.463 µM)	0.12 to 0.6 (≈ 0.463 to 2.32 µM)	0.12 to 0.6 (≈ 0.463 to 2.32 µM)	0.12 to 0.6 (≈ 0.463 to 2.32 µM)	IC#CCOc1cccnc1 [drawing 2]			
									IC#CCOCc1cccnc1 [drawing 25]	0	0	Zone of Inhibition ([3]; 0.5%): 1 (1-5 mm)
